Source: patent US5167616A, “Iontophoretic delivery method” (priority 1989, dated 1992)
Where “and” joins values, the source holds several entries; their conditions need not be identical. Equal values may be shown once.

Assay: Iontophoretic transdermal flux of metoclopramide through human cadaver skin (heat-stripped epidermis, two-compartment permeation test cell)
Type: in vitro ADME
Details: for Ratio of Average Flux-to-Power: power from voltage at 3.75 hours
Method: The transdermal flux of metoclopramide HC1 through samples of human cadaver back skin was measured using a polycarbonate test cell in which the skin sample to be tested is secured between a donor compartment and a receptor compartment. […] The area of the skin samples available for transport was 1.26 cm^2. The test cell device was maintained at a temperature of 32° C. using an aluminum block heat exchanger. An anode comprising a disk of silver foil having a thickness of 0.025 mm was present in the donor compartment while a cathode comprising a sintered disk of powdered silver metal and silver chloride was present in the receptor compartment. Thus, the reduction of silver ions to silver metal occurred at the cathode, while the oxidation of silver to silver ions took place at the anode.
Human cadaver skin was used for the permeation studies. Before securing the skin samples between the donor and the receptor compartment of the test cell, the skin was first heat-stripped by immersing the skin sample in water maintained at 60° C. for 90 seconds allowing the epidermis layer to be separated from the dermis. Circular epidermis samples having a diameter of 2.22 cm were cut using a gasket cutting punch. The epidermis samples were then mounted in the permeation test cell with the stratum corneum side facing the donor compartment.
The electrodes of the test cell were then connected to a Model 363 Potentiostat/Galvanostat, made by EG&G Princeton Applied Research, Princeton, NJ, which supplied a constant level of direct current of 126 μA or 100 μA/cm^2.
The test cell was in operation for four hours with each skin sample. During operation, metoclopramide was iontophoretically delivered from the donor solution through the cadaver skin into the receptor solution. The receptor solution was sampled once every hour over the four hour period. The entire volume (2 ml) of receptor solution was collected and replaced with fresh solution at each sampling point. The metoclopramide concentration in the receptor solution was determined by UV absorbance at 310 nm using a spectrophotometer manufactured by Hewlett Packard, of Palo Alto, CA, Model No. 8452A. Each flux data point shown in FIG. 4 was an average value from three skin specimens, all three specimens having been taken from the same cadaver.
The voltage for each skin sample was monitored throughout the experiment. A representative voltage was measured at 3.75 hours after start of operation for each skin sample and is recorded in Table 2. The power was calculated by multiplying the measured voltage at 3.75 hours by the applied current (i.e., 100 μA/cm^2).
The same equipment and procedures described in Example 1 were used to test human cadaver skin taken from the following sites of the same cadaver tested in Example 1: abdomen, upper arm, forearm, chest and hip/thigh. The average flux of metoclopramide through these skin sites is also plotted in FIG. 4. […] In general, the flux of metoclopramide through back skin was about 50% to 150% higher than the metoclopramide flux through the other tested skin sites.

**Q.** Which results are given for `CCN(CC)CCNC(=O)c1cc(Cl)c(N)cc1OC` [metoclopramide]?
**A.** Flux through back skin, increase over flux through the other tested skin sites: 50-150%; Flux through human back skin compared with the other tested skin sites (in words): significantly higher flux; Average Ratio of Average Flux-to-Power (Abdomen skin, mean of 3 samples): 336 μg/cm^2 · hr .multido; Ratio of Average Flux-to-Power (Abdomen skin): 347 μg/cm^2 · hr .multido and 277 μg/cm^2 · hr .multido and 384 μg/cm^2 · hr .multido; Average Ratio of Average Flux-to-Power (Back skin, mean of 6 samples): 431 μg/cm^2 · hr .multido; Average Ratio of Average Flux-to-Power (Chest skin, mean of 3 samples): 204 μg/cm^2 · hr .multido; Ratio of Average Flux-to-Power (Chest skin): 205 μg/cm^2 · hr .multido and 196 μg/cm^2 · hr .multido and 211 μg/cm^2 · hr .multido; Average Ratio of Average Flux-to-Power (Forearm skin, mean of 3 samples): 230 μg/cm^2 · hr .multido; Average Ratio of Average Flux-to-Power (Hip/Thigh skin, mean of 3 samples): 222 μg/cm^2 · hr .multido; Ratio of Average Flux-to-Power (Hip/Thigh skin): 164 μg/cm^2 · hr .multido and 305 μg/cm^2 · hr .multido and 197 μg/cm^2 · hr .multido; Average Ratio of Average Flux-to-Power (Upper Arm skin, mean of 2 samples): 307 μg/cm^2 · hr .multido; Average ratio of average flux-to-power, ranking of skin sites (in words) (back skin, followed by the abdomen and upper arm, Table 2): highest average ratio of average flux-to-power
